From patent US8124654B2, “Derivatives of hypoestoxide and related compounds” (Immune Modulation, Inc., priority 2008, dated 2012)

Legend:
[1] = tested on: P. berghei berghei (EI strain); experiment: In vivo effect in malaria-infected mice (blood parasitemia); settings: female mice, 5 mg/Kg oral once daily for 3 days; Giemsa-stained blood smears
Description: Five female mice per group were infected i.p. with 1×10^5P. berghei berghei (EI strain) parasitized RBCs and 3 days later, oral therapy was started at 5 mg/Kg once daily with either Formula IV or Chloroquine for 3 days. […], blood parasitemia was evaluated on each mouse on Giemsa-stained smears.

B16F1 melanocytes = experiment: Inhibition of lung colonization of B16F1 melanocytes in mice; format: in vivo, C57BL/6 Mice; settings: 5 mg/Kg oral once daily for 10 days; lungs counted on day 16; versus vehicle control
Description: 1×10^5 melanoma cells were injected intravenously into the lateral tail vein of each of 30 mice. Before treatment, mice were randomized into six groups of 5 mice per group. Treatment began one hour after intravenous inoculation of the tumor cells. Drugs, at 5 mg/Kg were administered via oral route, once daily for 10 days. Treatment was stopped on day 10. On day 16, lungs were removed and fixed in 10% formaldehyde. The surface melanoma colonies were counted for each lung and the means were established for each group. The mean for each group was used to calculate % inhibition based on the vehicle control.

[2] = tested on: P. falciparum CQ-Sensitive (3D7); experiment: In vitro malaria parasite development, 3H-hypoxanthine uptake, CQ-sensitive strain; format: cell-based; settings: for IC50: 48 h exposure from ring stage, 3H-hypoxanthine uptake, geometric mean
Description: (§1) Parasite cultures were exposed to different concentrations of Formula IV or hypoestoxide (from 100× stocks in DMSO) for 48 h, beginning at the ring stage. Concentrations yielding 50% inhibition (IC50) were extrapolated from plots of mean percent negative control activity over inhibitor concentration as measured by the uptake of ^3H-hypoxanthine. Data was analyzed after logarithmic transformation and expressed as the geometric mean IC50 and 95% confidence intervals.
(§2) Other anti-parasitic agents such as sesquiterpene artemisinin, chloroquine, mixtures thereof, and the like, can also be administered in appropriate doses along with the compounds of formula I-IV.

[3] = tested on: P. falciparum CQ-Resistant (W2 MR4); experiment: In vitro malaria parasite development, 3H-hypoxanthine uptake, CQ-resistant strain; format: cell-based; settings: for IC50: 48 h exposure from ring stage, 3H-hypoxanthine uptake, geometric mean
Description: as §1, §2

IL-1β production = experiment: Inhibition of IL-1β production; format: cell-based
IL-12 production = experiment: Inhibition of IL-12 production; format: cell-based
TNF-α production = experiment: Inhibition of TNF-α production; format: cell-based
IL-6 production = IL-6 production in LPS-stimulated human peripheral blood macrophages (ELISA); format: cell-based
Source text: At the end of 24-hour culture, supernatants were removed and tested for the presence of IL-6 by enzymne-linked immunosorbent assay.

[4] = ratio of IC50 versus hypoestoxide

12,18-dihydrohypoestoxide [Formula IV]
Reduction of Parasitemia (%) [1]: 92% | Inhibition (%) of lung melanoma colonies (B16F1 melanocytes): 65% | IC50 [2]: 1.4 µM | times more active than hypoestoxide against the CQ-sensitive strain [2, 4]: about 7 times | IC50 [3]: 0.12 µM | times more active than the parent hypoestoxide against the CQ-resistant strain [3, 4]: 88 times

C=C1C(=O)C[C@H]2C[C@@H]3O[C@@]3(C)CC[C@@H]3O[C@@]3(C)C[C@@H](OC(C)=O)[C@H]1C2(C)C [Hypoestoxide, hypoestoxide]
inhibition of IL-1β production (in words) (IL-1β production): inhibits | inhibition of IL-12 production (in words) (IL-12 production): inhibits | inhibition of TNF-α production (in words) (TNF-α production): inhibits | Inhibition (%) of lung melanoma colonies (B16F1 melanocytes): 70% | IC50 [2]: 10 µM | IC50 [3]: 10.6 µM | Inhibition (%) of IL-6 production (IL-6 production; 10 μM, LPS 3 μg/ml, 24 h): 96% | IL-6 (IL-6 production; 10 μM, LPS 3 μg/ml, 24 h culture supernatant, LPS alone 1200 pg/ml): 50 pg/mL | inhibition of IL-6 (in words) (IL-6 production; statement of the summary, no conditions given): inhibits

CCN(CC)CCCC(C)Nc1ccnc2cc(Cl)ccc12 (stereo not shown) [Chloroquine]
Reduction of Parasitemia (%) [1]: 96%
